These results are taken from ChEMBL document CHEMBL4033749, “Synthesis and biological evaluation of 5-fatty-acylamido-1, 3, 4-thiadiazole-2-thioglycosides” (Bioorg Med Chem Lett, 2017).

In brackets after ≈: the same amount, converted by molar mass. Activity calls are given as the source filed them. The calls are words filed in the database; no cut-off is given here. Where only a bound is given, the exact number is not on record here.

What is called MIC is the lowest concentration that inhibits growth of the organism. A word on the IC50: it is the concentration that gives 50% inhibition.

The test system of assay [1] is Bacillus subtilis. Put plainly: Antibacterial activity Bacillus subtilis MTCC 441 by agar well method. It counts as functional.
Assay [2] has as its system Staphylococcus aureus. Put plainly: Antibacterial activity Staphylococcus aureus MTCC 96 by agar well method. The assay is classed as functional.
The subject of assay [3] is Pseudomonas aeruginosa. Description: Antibacterial activity Pseudomonas aeruginosa MTCC 1688 by agar well method. The assay is classed as functional.
Assay [4] has as its system CHO-K1. Description: Cytotoxicity against CHOK1 cells incubated for 24 hrs by MTT asasy. The assay is classed as cell-based, Cricetulus griseus.
Assay [5] has as its system HeLa. Description: Cytotoxicity against human HeLa cells incubated for 24 hrs by MTT asasy. It counts as functional, cell-based.
In assay [6] the test system is Staphylococcus epidermidis. Description: Antibacterial activity Staphylococcus epidermidis MTCC 9041 by agar well method. It counts as functional.
Assay [7] has as its system Escherichia coli. Description: Antibacterial activity Escherichia coli MTCC 443 by agar well method. It counts as functional.
The subject of assay [8] is SK-OV-3. Put plainly: Cytotoxicity against human SKOV3 cells incubated for 24 hrs by MTT asasy. It counts as functional, cell-based.
Assay [9] concerns Klebsiella pneumoniae. Put plainly: Antibacterial activity Klebsiella pneumoniae MTCC 618 by agar well method. The assay is classed as functional.
Assay [10] has as its system DU-145. Put plainly: Cytotoxicity against human DU145 cells incubated for 24 hrs by MTT asasy. The assay is classed as functional, cell-based.
The subject of assay [11] is MDA-MB-231. Description: Cytotoxicity against human MDA-MB-231 cells incubated for 24 hrs by MTT asasy. It counts as functional, cell-based.
Setting [12] is: Homo sapiens, HeLa, 24 h, read-out: IC50.
Setting [13] is: Homo sapiens, MDA-MB-231, 24 h, read-out: IC50.
Setting [14] is: Cricetulus griseus, CHO-K1, 24 h, read-out: IC50.
Where [15] appears, read: Homo sapiens, SK-OV-3, 24 h, read-out: IC50.
Setting [16] is: Homo sapiens, DU-145, 24 h, read-out: IC50.

As to `C=CCCCCCCCCC(=O)Nc1nnc(S[C@@H]2O[C@H](CO)[C@H](O)[C@H](O)[C@H]2O)s1`, the MIC in [1], in assay [2], in assay [3], in assay [6], in [7] and in assay [9] was more than 150 µg/mL throughout. Besides, the IC50 entry in [4] (cho-k1) was “Not Active”; in assay [5] (setting [12]) it was 58.3 µM; in assay [8] (sk-ov-3) it was “Not Active”; in assay [10] (du-145), “Not Active”; in assay [11] (setting [13]), 80.6 µM.
As for `CCCCCCCC/C=C\CCCCCCCCCCCC(=O)Nc1nnc(S[C@@H]2O[C@H](CO)[C@H](O)[C@H](O)[C@H]2O)s1`, the MIC in [1], in assay [2], in [3], in [6], in assay [7] and in assay [9] was more than 150 µg/mL each time. Further, the IC50 result is “Not Active” in [4] (cho-k1); 13.5 µM in [5] (setting [12]); “Not Active” in assay [8] (sk-ov-3); “Not Active” in assay [10] (du-145); 70.4 µM in assay [11] (setting [13]).
On to `CN[C@@H]1[C@H](O[C@H]2[C@H](O[C@H]3[C@H](O)[C@@H](O)[C@H](N=C(N)N)[C@@H](O)[C@@H]3N=C(N)N)O[C@@H](C)[C@]2(O)C=O)O[C@@H](CO)[C@H](O)[C@H]1O` [STREPTOMYCIN], for which the MIC in [1] was 6.25 µg/mL (≈ 10.7 µM); in assay [2], 6.25 µg/mL (≈ 10.7 µM); in [3] it was 1.56 µg/mL (≈ 2.69 µM); in assay [6], 3.12 µg/mL (≈ 5.37 µM); in assay [7], 6.25 µg/mL (≈ 10.7 µM); in assay [9], 3.12 µg/mL (≈ 5.37 µM).
Regarding `CCCCCCCC(=O)Nc1nnc(S[C@@H]2O[C@H](CO)[C@H](O)[C@H](O)[C@H]2O)s1`, the MIC in assay [1], in [2], in assay [3], in assay [6], in [7] and in assay [9] was more than 150 µg/mL in each case. The IC50 in assay [4] (setting [14]) is 60.1 µM; in [5] (setting [12]) it was 50.8 µM; in [8] (setting [15]) it was 56 µM; in [10] (du-145) it was “Not Active”; in assay [11] (setting [13]) it was 30.8 µM.
For `CCCCCCCCCCCCCC(=O)Nc1nnc(S[C@@H]2O[C@H](COC(C)=O)[C@H](OC(C)=O)[C@H](OC(C)=O)[C@H]2OC(C)=O)s1`, the MIC entry in assay [1], in [2], in [3], in assay [6], in assay [7] and in [9] was “inactive” throughout. The IC50 in [4] (setting [14]) was 16.3 µM; in assay [5] (setting [12]), 61.3 µM; in assay [8] (sk-ov-3), “Not Active”; in assay [10] (setting [16]), 34.7 µM; in assay [11] (setting [13]), 26.2 µM.
As to `CCCCCC(=O)Nc1nnc(S[C@@H]2O[C@H](CO)[C@H](O)[C@H](O)[C@H]2O)s1`, the MIC in assay [1], in assay [2], in assay [3], in assay [6], in [7] and in assay [9] was more than 150 µg/mL throughout. Moreover, the IC50 result in assay [4] (cho-k1) was “Not Active”; in assay [5] (setting [12]), 45.6 µM; in assay [8] (sk-ov-3), “Not Active”; in assay [10] (du-145), “Not Active”; in assay [11] (setting [13]), 28.7 µM.
Take `CCCCCCCCCC(=O)Nc1nnc(S[C@@H]2O[C@H](CO)[C@H](O)[C@H](O)[C@H]2O)s1`: the MIC in assay [1], in [2], in assay [3], in assay [6], in [7] and in assay [9] was more than 150 µg/mL throughout. Besides, the 50% inhibitory concentration (IC50) entry in [4] (cho-k1) was “Not Active”; in assay [5] (setting [12]), 25.9 µM; in assay [8] (sk-ov-3), “Not Active”; in assay [10] (du-145) it was “Not Active”; in assay [11] (setting [13]), 53.1 µM.
For `CO[C@@]12[C@H](COC(N)=O)C3=C(C(=O)C(C)=C(N)C3=O)N1C[C@@H]1N[C@@H]12` [MITOMYCIN], the IC50 in assay [4] (setting [14]) is 13.2 to 13.4 µM; in assay [5] (hela), “Not Active”; in assay [8] (sk-ov-3) it was “Not Active”; in assay [10] (du-145), “Not Active”; in assay [11] (mda-mb-231), “Not Active”.
For the compound `C=CCCCCCCCCC(=O)Nc1nnc(S[C@@H]2O[C@H](COC(C)=O)[C@H](OC(C)=O)[C@H](OC(C)=O)[C@H]2OC(C)=O)s1`, the MIC result in [1], in assay [2], in [3], in assay [6], in [7] and in assay [9] was “inactive” each time. Also, the IC50 is 16.3 µM in assay [4] (setting [14]); 77.7 µM in assay [5] (setting [12]); “Not Active” in assay [8] (sk-ov-3); 22.9 µM in assay [10] (setting [16]); 60.9 µM in assay [11] (setting [13]).
On to `CCCCCCCC/C=C\CCCCCCCC(=O)Nc1nnc(S[C@@H]2O[C@H](CO)[C@H](O)[C@H](O)[C@H]2O)s1`, for which the minimal inhibitory concentration (MIC) in assay [1], in assay [2], in assay [3], in assay [6], in assay [7] and in assay [9] was more than 150 µg/mL throughout. Moreover, the IC50 entry in assay [4] (cho-k1) was “Not Active”; in [5] (setting [12]) it was 8.8 µM; in [8] (sk-ov-3) it was “Not Active”; in assay [10] (du-145), “Not Active”; in assay [11] (setting [13]), 43.6 µM.
For `CCCCCCCCCCCCCCCCCC(=O)Nc1nnc(S[C@@H]2O[C@H](CO)[C@H](O)[C@H](O)[C@H]2O)s1`, the MIC in [1], in assay [2], in [3], in [6], in assay [7] and in assay [9] was more than 150 µg/mL each time. For the same compound, the IC50 result is “Not Active” in assay [4] (cho-k1); 11.2 µM in assay [5] (setting [12]); “Not Active” in assay [8] (sk-ov-3); “Not Active” in [10] (du-145); 67.1 µM in assay [11] (setting [13]).
In the case of `CCCCCCCCCCCCCC(=O)Nc1nnc(S[C@@H]2O[C@H](CO)[C@H](O)[C@H](O)[C@H]2O)s1`, the MIC in [1] is 50 µg/mL (≈ 98.9 µM); in assay [2], more than 150 µg/mL; in assay [3] it was more than 150 µg/mL; in [6], more than 150 µg/mL; in assay [7], more than 150 µg/mL; in assay [9], 25 µg/mL (≈ 49.4 µM). The IC50 result in assay [4] (cho-k1) is “Not Active”; in assay [5] (setting [12]), 31 µM; in [8] (sk-ov-3), “Not Active”; in assay [10] (du-145), “Not Active”; in assay [11] (setting [13]), 33.3 µM.
On to `COc1cccc2c1C(=O)c1c(O)c3c(c(O)c1C2=O)C[C@@](O)(C(=O)CO)C[C@@H]3O[C@H]1C[C@H](N)[C@H](O)[C@H](C)O1` [DOXORUBICIN], for which the IC50 result was “Not Active” in [4] (cho-k1); 0.7 µM in assay [5] (setting [12]); 0.7 to 0.8 µM in assay [8] (setting [15]); 0.7 to 0.8 µM in assay [10] (setting [16]); 0.7 to 0.8 µM in [11] (setting [13]).
Take `CC1(C)S[C@@H]2[C@H](NC(=O)Cc3ccccc3)C(=O)N2[C@H]1C(=O)O` [PENICILLIN G]: the minimal inhibitory concentration (MIC) in [1] came out at 1.56 µg/mL (≈ 4.67 µM); in [2], 1.56 µg/mL (≈ 4.67 µM); in [3], 12.5 µg/mL (≈ 37.4 µM); in [6] it was 3.12 µg/mL (≈ 9.35 µM); in assay [7], 12.5 µg/mL (≈ 37.4 µM); in assay [9] it was 6.25 µg/mL (≈ 18.7 µM).
